Results taken from US20230040081A1 (priority 2019, published 2023).
Several values for one entry are separate records, joined by “and”; a condition that tells them apart may be missing. Equal values may be shown once.

Assays:
viral RNA polymerase [1] = test: Potential inhibitors: Results Hit validation; assay type: biochemical; conditions: test concentration not given
Procedure: (§1) Compound stocks were prepared at a concentration of 1 mM in 65% DMSO, at a volume of 5 μL each.

viral RNA polymerase [2] = test: Potential inhibitors: Results Screen; assay type: biochemical; conditions: test concentration not given
Procedure: as §1

Clopt1 (Vaccinia virus) [3] = assay type: cell-based
Clopt1 (Vaccinia virus) [4] = assay type: cell-based; remark: listed apart in the source
[5] = target: Vaccinia RNA polymerase core enzyme (Rpo147/Rpo132/Rpo35/Rpo30/Rpo22/Rpo19/Rpo18/Rpo7) (Vaccinia virus (GLV-1h439, Lister …, UniProt P07392;Q76ZP7;P24757;P21603;P68609;P68611;P04310;P68317 …)); test: structure; conditions: tags: HA/FLAG C-terminal on Rpo132

Row | Molecule | Results Hit validation Median (% inhibition) (viral RNA polymerase [1]) | Results Screen Median Screen (% inhibition) (viral RNA polymerase [2]) | further results
1 | CC1(C)CCC[C@@]2(C)[C@H]1[C@H](O)C=C1COC(=O)[C@]12O (racemic) [AD153413-10_B3] | 43.3 | 60.9 | –
2 | O=C(OC[C@@H]1O[C@H](Oc2ccc(O)cc2CO)[C@@H](O)[C@H](O)[C@H]1O)c1ccccc1 (racemic) [AD153413-11_H9] | 54.9 | 60.5 | –
3 | COc1ccc2c(c1)OC1c3ccc(OC)cc3OCC21 (centres unmarked) [AD153413-01_A10] | 77.6 | 84.5 | –
4 | CC1(C)C2CC[C@]3(C)C(C(=O)C=C4[C@H]5C[C@@](C)(C(=O)O)CC[C@]5(C)CC[C@]43C)[C@@]2(C)CC[C@@H]1O (some centres unmarked) [AD153413-01_B11] | 72.1 | 75.6 | –
5 | O=C(O)/C=C/c1ccccc1O[C@H]1O[C@@H](CO)[C@H](O)[C@@H](O)[C@@H]1O [AD153413-02_F8] | 44 | 86.7 | –
6 | COc1ccc(CCC(=O)O)cc1 [AD153413-03_F11] | 41.8 | 70.6 | –
7 | Oc1cc(O)cc(CCC/C=C\CCCCCCCCCc2cc(O)cc(O)c2)c1 [AD153413-03_H2] | 48.9 | 73.1 | –
8 | C[C@]1(C(=O)O)CC[C@@]2(C)CC[C@@]3(C)C4=CC(=O)c5cc(O)c(O)cc5[C@@]4(C)CC[C@]3(C)[C@H]2C1 [AD153413-04_H6] | 52.2 | 77 | –
9 | COc1cc(O)c2c(=O)c(O[C@H]3O[C@H](C)[C@@H](O)[C@H](O)[C@@H]3O)c(-c3ccc(O)cc3)oc2c1O [AD153413-05_B3] | 43.6 | 72.4 | –
10 | COc1cc(C)cc(C(=O)O)c1C1=C(O)C(=O)c2c(O)cccc2C1=O [AD153413-06_A10] | 64.1 | 72.4 | –
11 | NC(=O)c1c[nH]c(Cc2ccccc2)cc1=O [AD153413-06_B9] | 42.9 | 80 | –
12 | O=C(CCc1ccc(O)cc1)CC(CCc1ccc(O)cc1)OC1O[C@@H](COC(=O)/C=C/c2ccc(O)cc2)[C@H](O)[C@@H](O)[C@@H]1O (some centres unmarked) [AD153413-07_H11] | 45.2 | 70 | –
13 | C=C(/C=C/[C@@H](CCC(=O)O)C(C)C)CCC(C)=O [AD153413-08_B4] | 41.9 | 73.6 | –
14 | CC(=O)OC1CC2C(COC(=O)CC(C)C)=CO[C@H](OC(=O)CC(C)C)C2C12CO2 (some centres unmarked) [AD153413-09_A3] | 55.9 | 89.7 | –
15 | COc1cc(OC)cc([C@@H](C)C(=O)c2ccc(O)cc2O)c1 [AD153413-09_A6] | 64.2 | 81.1 | –
16 | CC[C@H](C1=C(O)C(C)(C)C(=O)C(C)(C)C1=O)c1c(O)cc(O)c(C(=O)C(C)C)c1O [AD153413-09_B9] | 61.5 | 85.2 | –
17 | CCC(C)C(=O)O[C@H]1CCC=C2C=C[C@H](C)[C@H](CC[C@@H](O)C[C@@H](O)CC(=O)O)[C@H]21 (some centres unmarked) [AD153413-09_E2] | 60.5 | 90.3 | –
18 | C=C(C)C1=C[C@@]2(C)C(=CC1=O)CC[C@@H](O)[C@@H]2C [AD153413-10_F2] | 50.8 | 80 | –
19 | COc1cc(C2c3c(cc(OC)c(O)c3O)CC(CO)C2CO[C@H]2O[C@@H](C(=O)O)[C@H](O)[C@@H](O)[C@@H]2O)cc(OC)c1O (some centres unmarked) [AD153413-11_A11] | 57.1 | 83 | –
20 | CC(C)C1NC(=O)C2CCCN2C1=O (centres unmarked) [AD153413-12_C11] | 44.2 | 61.7 | –
21 | CCCCC(C)C(=O)C(CC(C)CCCCCCC(O)CC(O)C(C)NC(C)=O)OC(=O)CC(CC(=O)O)C(=O)O (centres unmarked) [AD153413-12_D11] | 50.1 | 73.7 | –

Row | Molecule | Results Hit validation Median (% inhibition) (viral RNA polymerase [1]) | Results Screen Median Screen (% inhibition) (viral RNA polymerase [2]) | further results
22 | OC[C@@H]1O[C@H](Oc2ccc(O)c3cccc(O)c23)[C@@H](O)[C@H](O)[C@H]1O [AD153413-14_C5] | 52.6 | 63.3 | –
23 | COc1cc(C2OC(c3cc(OC)c(OC)c(OC)c3)C(C)C2C)cc(OC)c1OC (centres unmarked) [AD153413-14_E9] | 43.8 | 67.1 | –
24 | CC(O)CC1CCC(C(C)C(=O)OC(C)CC2CCC(C(C)C(=O)O)O2)O1 (centres unmarked) [AD153413-16_A3] | 44.5 | 83 | –
25 | COc1cc(O)c2c(c1)C(O)C(C)OC2=O (centres unmarked) [AD153413-16_B4] | 53.6 | 72.5 | –
26 | CCCCCCCC/C(=C/CC(=O)O)C(=O)O [AD153413-16_C3] | 40.5 | 84.3 | –
27 | O=C(/C=C/c1ccc(O)c2c1C(C(=O)O)C(c1ccc(O)c(O)c1)O2)OC(Cc1ccc(O)c(O)c1)C(=O)O (centres unmarked) [AD153413-16_E3] | 55.9 | 77.7 | –
28 | CCC(C)C(=O)OC1CC(C)C=C2C=CC(C)C(CCC(O)CC(O)CC(=O)O)C21 (centres unmarked) [AD153413-16_G9] | 64.7 | 87.4 | –
29 | COc1cc(-c2cc(=O)c3c(O)c(C4OC(CO)C(O)C(OC5OC(CO)C(O)C(O)C5OC5OC(CO)C(O)C(O)C5O)C4OC(=O)/C=C/c4ccc(O)c(O)c4)c(O)cc3o2)ccc1O (centres unmarked) [AD153413-17_A4] | 52.3 | 69.6 | –
30 | CC[C@H](C)/C=C(C)/C=C/C(=O)Cc1cc(O)c(C)c(O)c1C=O [AD153413-17_A5] | 70.9 | 71 | –
31 | COc1cc(-c2oc3cc(O[C@H]4O[C@@H](CO)[C@H](O)[C@@H](O)[C@@H]4O)c(OC)c(O)c3c(=O)c2OC)ccc1O [AD153413-17_A6] | 62.2 | 77.1 | –
32 | COC(=O)[C@H](Cc1ccccc1)NC(=O)c1ccccc1 [AD153413-18_A11] | 60.6 | 81 | –
33 | CC(=O)O[C@H]1C[C@@H](O)[C@]23COC(O)[C@@]1(C)C2C[C@H](O)[C@@]1(C)C3C(=O)[C@@H](OC(C)=O)[C@]2(C)[C@@H](c3ccoc3)C[C@@H]3O[C@@]321 (some centres unmarked) [AD153413-19_D3] | 41.6 | 71.8 | –
34 | C/C=C/c1ccc2c(c1)[C@H](C)[C@@H](c1ccc(O)cc1)O2 [AD153413-19_H4] | 50.8 | 98.8 | –
35 | O=C1c2ccc(O)cc2O[C@H](c2ccc(O)c(O)c2)[C@H]1O [AD153413-21_A6] | 54.7 | 68.8 | –
36 | COC(=O)C1=COC(OC2O[C@@H](CO)[C@H](O)[C@@H](O)[C@@H]2O)[C@H]2C1C=CC21C=C(C(C)CC(=O)/C=C/c2ccc(O)cc2)C(=O)O1 (some centres unmarked) [AD153413-23_G3] | 61.7 | 60.5 | –
37 | CC1CCC2(C)CCC3(C)C(=CCC4C5(C)CCC(O)C(C)(C(=O)O)C5CCC43C)C2C1C (centres unmarked) [AD153413-25_A7] | 70 | 85.9 | –
38 | CC(=O)O[C@H]1CC[C@]2(C)C(CC[C@@]3(C)C2[C@@H](O)C=C2[C@@H]4[C@H](C)[C@@H](C)CC[C@@]4(C)CC[C@@]23C)[C@]1(C)C(C)=O (some centres unmarked) [AD153413-25_A8] | 86.3 | 73.8 | –
39 | CC1=C[C@H](C/C(C)=C/COc2c3occc3cc3ccc(=O)oc23)OC1=O [AD153413-25_H9] | 51.1 | 79.1 | –
40 | NC(=O)CC[C@H](N)C(=O)O [glutamine, L-glutamine] | – | – | intensity, times lower without glutamine in the third medium switch than counterparts (Clopt1 (Vaccinia virus) [3]): roughly 100 times; final intensity, times lower in glutamine absence than in glutamine fed samples (Clopt1 (Vaccinia virus) [3]; after 21 hours): over 100 times; Factor (Clopt1 (Vaccinia virus) [4]): 1222 and 1468 and 1774 and 2000; virus replication, times higher with glutamine in the third medium switch than negative counterparts (Clopt1 (Vaccinia virus) [4]): more than 1000 times
41 | vRNAP elongation scaffold (template DNA/non-template DNA/RNA) (mixed, RNA 5'-triphosphate) DNA 1: GACTTATGATCGGATAAGAGTCCAGCCAATGACAGATGCCTCATAGCC DNA 2: GGCTATGAGGCATCCCATGCGTTGAGGACTCTTATCCGATCATAAGTC RNA: GAGUUGUAAUAACAAGGGAAAUGUCAUUGGC | – | – | binding result [5]: binds
